Values quoted from earlier work in US12691049B2, “Process for producing hair treatment products by mixing organic C1-C6-alkoxysilanes and alkalizing agents in specific molar ratios” (Henkel AG & Co. KGaA, priority 2021, dated 2026).

| Compound | solubility in water (25° C.) | other results |
| --- | --- | --- |
| Nc1cc(S(=O)(=O)[O-])cc2cc(S(=O)(=O)[O-])c(N=Nc3ccccc3)c(O)c12.[Na+].[Na+] [Acid Red 33, disodium salt of 5-amino-4-hydroxy-3-(phenylazo)-naphthalene-2,7-disulfonate] | 2.5 mg/mL | – |
| O=S(=O)([O-])c1ccc(N=Nc2c(O)ccc3ccccc23)cc1.[Na+] [Acid Orange 7, sodium salt of 4-[(2-hydroxy-1-naphthyl)azo]benzene sulphonate] | more than 7 g/L | – |
| O=C([O-])c1c(Cl)c(Cl)c(Cl)c(Cl)c1-c1c2cc(Br)c(=O)c(Br)c-2oc2c(Br)c([O-])c(Br)cc12.[Na+].[Na+] [Acid Red 92, disodium salt of 3,4,5,6-tetrachloro-2-(1,4,5,8-tetrabromo-6-hydroxy-3-oxanthene-9-yl) benzoic acid] | greater than 10 g/L | – |
| CCN(Cc1cccc(S(=O)(=O)[O-])c1)c1ccc(C(=C2C=CC(=[N+](CC)Cc3cccc(S(=O)(=O)[O-])c3)C=C2)c2ccccc2S(=O)(=O)[O-])cc1.[Na+].[Na+] [Acid Blue 9] | – | water solubility (25° C.): more than 20 wt % |
| mixture of the sodium salts of mono and sis-sulfonic acids of 2-(2-quinolyl)-1H-indene-1,3(2H)-dione [Acid Yellow 3] | 20 mg/mL | – |
| O=C([O-])C1=NN(c2ccc(S(=O)(=O)[O-])cc2)C(=O)C1N=Nc1ccc(S(=O)(=O)[O-])cc1.[Na+].[Na+].[Na+] (stereo not drawn) [Acid Yellow 23, trisodium salt of 4,5-dihydro-5-oxo-1-(4-sulfophenyl)-4-((4-sulfophenyl)azo)-1H-pyrazole-3-carboxylic acid] | – | solubility in water (in words) (at 25° C.): readily soluble in water |
